Experimental data reported in the supplement of paper PMC6045584.
± gives the standard deviation of the averaged measurements.

How the values were obtained:
17-AAG = compound: C=CCNC1=C2C[C@@H](C)C[C@H](OC)[C@H](O)[C@@H](C)/C=C(\C)[C@H](OC(N)=O)[C@@H](OC)/C=C\C=C(/C)C(=O)NC(=CC1=O)C2=O [17-AAG]; assay: surviving fraction relative to DMSO-only wells; higher = less growth inhibition; conditions: exposure time: 5 days
Procedure, shortened: (§1)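 Log-phase tumour cell lines, 250–500 cells per well in 384-well plates, received inhibitors at 0.5, 1, 5, 10, 50, 100, 500 and 1000 nM continuously for five days, starting 24 hours after seeding. Viability was quantified with CellTiter-Glo luminescence and normalised to the median of DMSO-only wells to give surviving fraction. Three screens were run per line, and a line stayed in only with replicate Pearson r >0.7 and median Z' >0.3.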

DECITABINE = compound: Nc1ncn([C@H]2C[C@H](O)[C@@H](CO)O2)c(=O)n1 [DECITABINE]; assay: as above; conditions: exposure time: 5 days
Procedure, shortened: as §1

| Test System | surviving fraction (17-AAG; 0.5 nM) | surviving fraction (17-AAG; 1 nM) | surviving fraction (17-AAG; 5 nM) | surviving fraction (17-AAG; 10 nM) | surviving fraction (17-AAG; 50 nM) | surviving fraction (17-AAG; 100 nM) | surviving fraction (17-AAG; 500 nM) | surviving fraction (17-AAG; 1000 nM) | surviving fraction (DECITABINE; 0.5 nM) | surviving fraction (DECITABINE; 1 nM) | surviving fraction (DECITABINE; 5 nM) | surviving fraction (DECITABINE; 10 nM) | surviving fraction (DECITABINE; 50 nM) | surviving fraction (DECITABINE; 100 nM) | surviving fraction (DECITABINE; 500 nM) | surviving fraction (DECITABINE; 1000 nM) |
| --- | --- | --- | --- | --- | --- | --- | --- | --- | --- | --- | --- | --- | --- | --- | --- | --- |
| 22RV1 PROSTATE | 0.906 ± 0.038 | 0.989 ± 0.043 | 0.975 ± 0.027 | 0.91 ± 0.069 | 0.687 ± 0.07 | 0.336 ± 0.047 | 0.134 ± 0.0046 | 0.0907 ± 0.011 | 1.01 ± 0.024 | 0.935 ± 0.23 | 0.964 ± 0.19 | 0.897 ± 0.19 | 0.881 ± 0.27 | 0.801 ± 0.16 | 0.614 ± 0.17 | 0.509 ± 0.15 |
| 93VU HEADNECK | 0.814 ± 0.066 | 0.78 ± 0.0099 | 0.822 ± 0.088 | 0.92 ± 0.087 | 1.13 ± 0.099 | 0.119 ± 0.011 | 0.092 ± 0.0062 | 0.0827 ± 0.005 | 1.12 ± 0.086 | 1.09 ± 0.1 | 1.14 ± 0.12 | 1 ± 0.015 | 0.931 ± 0.035 | 0.933 ± 0.017 | 0.747 ± 0.03 | 0.657 ± 0.007 |
| 143B BONE | 0.985 ± 0.047 | 0.992 ± 0.063 | 1.02 ± 0.029 | 0.965 ± 0.021 | 0.651 ± 0.011 | 0.271 ± 0.0071 | 0.0855 ± 0.00071 | 0.0855 ± 0.00071 | 1.09 ± 0.088 | 1.08 ± 0.09 | 1.09 ± 0.067 | 1.1 ± 0.069 | 1.13 ± 0.11 | 1.11 ± 0.076 | 0.992 ± 0.11 | 0.956 ± 0.031 |
| A549 LUNG | 0.923 ± 0.039 | 0.909 ± 0.038 | 0.91 ± 0.007 | 0.813 ± 0.076 | 0.14 ± 0.014 | 0.06 ± 0.0044 | 0.0547 ± 0.0032 | 0.0493 ± 0.00058 | 1.05 ± 0.027 | 1.031 ± 0.0066 | 1.03 ± 0.017 | 0.992 ± 0.016 | 1.03 ± 0.017 | 1.03 ± 0.03 | 1.02 ± 0.036 | 0.908 ± 0.031 |
| ASKA SYNOVIAL | 0.785 ± 0.062 | 0.728 ± 0.11 | 0.626 ± 0.045 | 0.293 ± 0.025 | 0.206 ± 0.014 | 0.182 ± 0.02 | 0.185 ± 0.011 | 0.226 ± 0.0099 | 1.04 ± 0.07 | 1.01 ± 0.085 | 1.04 ± 0.026 | 1.03 ± 0.043 | 1.03 ± 0.067 | 0.952 ± 0.079 | 0.711 ± 0.075 | 0.6847 ± 0.0058 |
| BT20 BREAST | 0.804 ± 0.1 | 0.793 ± 0.054 | 0.504 ± 0.08 | 0.308 ± 0.034 | 0.303 ± 0.061 | 0.282 ± 0.091 | 0.261 ± 0.068 | 0.278 ± 0.047 | 1.24 ± 0.16 | 1.14 ± 0.086 | 1.33 ± 0.072 | 1.28 ± 0.12 | 1.46 ± 0.037 | 1.33 ± 0.073 | 1.1 ± 0.075 | 0.844 ± 0.069 |
| BT549 BREAST | 0.874 ± 0.12 | 0.811 ± 0.034 | 0.604 ± 0.092 | 0.259 ± 0.064 | 0.152 ± 0.028 | 0.0433 ± 0.0042 | 0.0447 ± 0.0045 | 0.0467 ± 0.0025 | 1.16 ± 0.084 | 1.16 ± 0.23 | 0.976 ± 0.095 | 1.06 ± 0.042 | 0.721 ± 0.051 | 0.724 ± 0.045 | 0.537 ± 0.064 | 0.452 ± 0.058 |
| C33A CERVIX | 1.22 ± 0.12 | 1.04 ± 0.14 | 1.4 ± 0.13 | 1.2 ± 0.09 | 1.31 ± 0.068 | 1.16 ± 0.1 | 1.061 ± 0.0074 | 0.124 ± 0.016 | 0.969 ± 0.043 | 0.941 ± 0.064 | 0.963 ± 0.045 | 1.06 ± 0.036 | 0.9227 ± 0.0078 | 0.909 ± 0.075 | 0.697 ± 0.1 | 0.685 ± 0.082 |
| CADOES1 SOFT TISSUE | 0.884 ± 0.093 | 1.01 ± 0.07 | 1 ± 0.076 | 0.903 ± 0.023 | 0.876 ± 0.11 | 0.842 ± 0.1 | 0.454 ± 0.1 | 0.129 ± 0.022 | 0.915 ± 0.1 | 0.962 ± 0.14 | 0.772 ± 0.11 | 0.951 ± 0.047 | 0.596 ± 0.096 | 0.448 ± 0.05 | 0.316 ± 0.061 | 0.278 ± 0.041 |
| CAL51 BREAST | 0.966 ± 0.047 | 0.886 ± 0.052 | 0.989 ± 0.033 | 0.93 ± 0.033 | 0.361 ± 0.0083 | 0.0827 ± 0.0082 | 0.0253 ± 0.00076 | 0.024 ± 0.0005 | 1.03 ± 0.028 | 0.98 ± 0.034 | 1 ± 0.041 | 0.952 ± 0.046 | 0.95 ± 0.12 | 0.865 ± 0.15 | 0.586 ± 0.077 | 0.481 ± 0.021 |
